The record followed here is US9315475B2 (MERCK SHARP & DOHME CORP., priority 2011, dated 2016).

Structures are written as SMILES.

This test has as its target T1, wildtype HIV-1 protease (Human immunodeficiency virus type 1 group M subtype B, UniProt P04585).
T1 construct: the wildtype HIV-1 protease (which was expressed in Escherichia coli); made in house; host or cells: Escherichia coli
Kind of test: Assay for inhibition of microbial expressed HIV protease (Pepcleav). The test is classed as biochemical. As to conditions: wild type HIV-1 protease expressed in E. coli, peptide substrate, pH 5.5; mean of at least two independent experiments; read-out: Pepcleav. Put shortly:
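E. coli-expressed wild-type HIV-1 protease (20 pM) preincubated 30 min at room temperature with inhibitor in pH 5.5 sodium acetate/NaCl/BSA buffer, then 400 μM Val-Ser-Gln-Asn-(βnaphthyl)Ala-Pro-Ile-Val added for 1 h at 30 °C. Quenched with formic acid; product quantified by LC-MS/MS peak area, indinavir internal standard.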
Take `COC(=O)N[C@H](C(=O)Nc1cccc(F)c1CC[C@@H]1CN[C@H](COC(=O)NCC(F)(F)F)CO1)[C@@H](c1ccc(Cl)c(F)c1)C1CCOCC1` [Example 129, (βR)-4-Chloro-3-fluoro-N-(3-fluoro-2-{2-[(2R,5S)-5-({[(2,2,2-trifluoroethyl)carbamoyl]oxy}methyl)morpholin-2-yl]ethyl}phenyl)-Nα-(methoxycarbonyl)-β-(tetrahydro-2H-pyran-4-yl)-L-phenylalaninamide]: the IC50 turned out to be 8.6 nM.

With `O=C(NCC(F)(F)F)OC[C@@H]1CO[C@H](CCc2c(F)cncc2NC(=O)[C@@H](NC(=O)OCC(F)(F)F)C(c2ccc(F)cc2)c2ccc(F)cc2)CN1` [Example 141, 4-Fluoro-β-(4-fluorophenyl)-N-(5-fluoro-4-{2-[(2R,5S)-5-({[(2,2,2-trifluoroethyl)carbamoyl]oxy}methyl)morpholin-2-yl]ethyl}pyridin-3-yl)-Nα-[(2,2,2-trifluoroethoxy)carbonyl]-L-phenylalaninamide], the IC50 stood at 180 nM.

Take `O=C(C[C@H](c1ccccc1)c1ccncc1)Nc1cccc(F)c1CC[C@@H]1CN[C@H](COC(=O)NCC(F)(F)F)CO1` [Example 162, {(3S,6R)-6-[2-(2-fluoro-6-{[(3R)-3-phenyl-3-pyridin-4-ylpropanoyl]amino}phenyl)ethyl]morpholin-3-yl}methyl (2,2,2-trifluoroethyl)carbamate]: the IC50 amounted to 510 nM.

For `O=C(C[C@H](CC1CC1)c1ccccc1)Nc1cccc(F)c1CC[C@@H]1CN[C@H](COC(=O)NCC(F)(F)F)CO1` [Example 163, {(3S,6R)-6-[2-(2-{[(3S)-4-cyclopropyl-3-phenyl-butanoyl]amino}-6-fluoro-phenyl)ethyl]morpholin-3-yl}methyl (2,2,2-trifluoroethyl)carbamate], the IC50 turned out to be 1100 nM.

With `N[C@@H](Cc1ccccc1C1CC1)C(=O)Nc1cncc(F)c1CC[C@@H]1CN[C@H](COC(=O)NCC(F)(F)F)CO1` [Example 189, 2-cyclopropyl-N-(5-fluoro-4-{2-[(2R,5S)-5-({[(2,2,2-trifluoroethyl)carbamoyl]oxy}methyl)morpholin-2-yl]ethyl}pyridin-3-yl)-L-phenylalaninamide], the IC50 was found to be 1730 nM.

On to `N[C@@H](Cc1cccc2ccccc12)C(=O)Nc1cncc(F)c1CC[C@@H]1CN[C@H](COC(=O)NCC(F)(F)F)CO1` [Example 190, {(3S,6R)-6-[2-(3-{[(2S)-2-amino-3-naphthalen-1-ylpropanoyl]amino}-5-fluoropyridin-4-yl)ethyl]morpholin-3-yl}methyl (2,2,2-trifluoroethyl)carbamate (non-preferred name)], for which the IC50 worked out at 510 nM.

As to `N[C@@H](Cc1cccc2ccccc12)C(=O)Nc1cncc(F)c1CC[C@@H]1CN[C@H](COC(=O)NCc2ccc(F)cc2)CO1` [Example 191, {(3S,6R)-6-[2-(3-{[(2S)-2-amino-3-naphthalen-1-ylpropanoyl]amino}-5-fluoropyridin-4-yl)ethyl]morpholin-3-yl}methyl (4-fluorobenzyl)carbamate (non-preferred name)], the IC50 turned out to be 130 nM.

Regarding `N[C@H](C(=O)Nc1ccc(F)cc1CC[C@@H]1CN[C@H](COC(=O)NCC(F)F)CO1)C(c1ccccc1)c1ccccc1` [Example 192, N-(2-{2-[(2R,5S)-5-({[(2,2-difluoroethyl)carbamoyl]oxy}methyl)morpholin-2-yl]ethyl}-4-fluorophenyl)-β-phenyl-L-phenylalaninamide], the IC50 came to 130 nM.

With `N[C@H](C(=O)Nc1cncc(F)c1CC[C@@H]1CN[C@H](COC(=O)NC2(c3ccncc3)CCC2)CO1)C(c1ccc(F)cc1)c1ccc(F)cc1` [Example 194, 4-fluoro-β-(4-fluorophenyl)-N-(5-fluoro-4-{2-[(2R,5S)-5-({[(1-pyridin-4-ylcyclobutyl)carbamoyl]oxy}methyl)morpholin-2-yl]ethyl}pyridin-3-yl)-L-phenylalaninamide], the IC50 amounted to 100 nM.

Regarding `C[C@H](Oc1c(F)cccc1NC(=O)[C@@H](N)C(c1ccc(F)cc1)c1ccc(F)cc1)[C@@H]1CN[C@H](COC(=O)NCc2ccc(F)cc2)CO1` [Example 195, 4-fluoro-N-(3-fluoro-2-{(1S)-1-[(2S,5S)-5-({[(4-fluorobenzyl)carbamoyl]oxy}methyl)morpholin-2-yl]ethoxy}phenyl)-β-(4-fluorophenyl)-L-phenylalaninamide], the IC50 worked out at 91 nM.

On to `N[C@H](C(=O)Nc1ccc(F)cc1CC[C@@H]1CN[C@H](COC(=O)NCC(F)(F)F)CO1)C(c1ccccc1)c1ccccc1` [Example 196, N-(4-fluoro-2-{2-[(2R,5S)-5-({[(2,2,2-trifluoroethyl)carbamoyl]oxy}methyl)morpholin-2-yl]ethyl}phenyl)-β-phenyl-L-phenylalaninamide], for which the IC50 came out at 79 nM.

For `N[C@H](C(=O)Nc1cncc(F)c1CC[C@@H]1CN[C@H](COC(=O)N2CCOCC2)CO1)C(c1ccc(F)cc1)c1ccc(F)cc1` [Example 197, {(3S,6R)-6-[2-(3-fluoro-5-{[4-fluoro-β-(4-fluorophenyl)-L-phenylalanyl]amino}pyridin-4-yl)ethyl]morpholin-3-yl}methyl morpholine-4-carboxylate], the IC50 is 68 nM.

For `N[C@H](C(=O)Nc1cccc(F)c1CC[C@@H]1CN[C@H](COC(=O)NCc2ccncc2)CO1)C(c1ccc(F)cc1)c1ccc(F)cc1` [Example 198, 4-fluoro-β-(4-fluorophenyl)-N-(3-fluoro-2-{2-[(2R,5S)-5-({[(pyridin-4-ylmethyl)carbamoyl]oxy}methyl)morpholin-2-yl]ethyl}phenyl)-L-phenylalaninamide], the IC50 worked out at 44 nM.

As for `CCC[C@@H](c1ccccc1)[C@H](N)C(=O)Nc1cccc(F)c1CC[C@@H]1CN[C@H](COC(=O)NCc2ccc(F)cc2)CO1` [Example 199, (βS)-N-(3-fluoro-2-{2-[(2R,5S)-5-({[(4-fluorobenzyl)carbamoyl]oxy}methyl)morpholin-2-yl]ethyl}phenyl)-β-propyl-L-phenylalaninamide], the IC50 came out at 41 nM.

As to `N[C@H](C(=O)Nc1c(F)cccc1OC[C@@H]1CN[C@H](COC(=O)NCC(F)(F)F)CO1)C(c1ccc(F)cc1)c1ccc(F)cc1` [Example 200, 4-fluoro-β-(4-fluorophenyl)-N-(2-fluoro-6-{[(2S,5S)-5-({[(2,2,2-trifluoroethyl)carbamoyl]oxy}methyl)morpholin-2-yl]methoxy}phenyl)-L-phenylalaninamide], the IC50 is 31 nM.

Consider `N[C@H](C(=O)Nc1cncc(F)c1OC[C@@H]1CN[C@H](COC(=O)NCC(F)(F)F)CO1)C(c1ccc(F)cc1)c1ccc(F)cc1` [Example 203, 4-fluoro-β-(4-fluorophenyl)-N-(5-fluoro-4-{[(2S,5S)-5-({[(2,2,2-trifluoroethyl)carbamoyl]oxy}methyl)morpholin-2-yl]methoxy}pyridin-3-yl)-L-phenylalaninamide], for which the IC50 was 28 nM.

On to `N[C@@H](Cc1ccccc1Cl)C(=O)Nc1cccc(F)c1CC[C@@H]1CN[C@H](COC(=O)NCc2ccc(F)cc2)CO1` [Example 204, 2-chloro-N-(3-fluoro-2-{2-[(2R,5S)-5-({[(4-fluorobenzyl)carbamoyl]oxy}methyl)morpholin-2-yl]ethyl}phenyl)-L-phenylalaninamide], for which the IC50 worked out at 26 nM.

Turning to `N[C@H](C(=O)Nc1cncc(F)c1CC[C@@H]1CN[C@H](COC(=O)NCC2CCS(=O)(=O)C2)CO1)C(c1ccc(F)cc1)c1ccc(F)cc1` (stereo partly drawn) [Example 209, N-[4-(2-{(2R,5S)-5-[({[(1,1-dioxidotetrahydrothiophen-3-yl)methyl]carbamoyl}oxy)methyl]morpholin-2-yl}ethyl)-5-fluoropyridin-3-yl]-4-fluoro-β-(4-fluorophenyl)-L-phenylalaninamide], the IC50 is 16 nM.

With `C[C@H](NC(=O)OC[C@@H]1CO[C@H](COc2c(F)cccc2NC(=O)[C@@H](N)C(c2ccc(F)cc2)c2ccc(F)cc2)CN1)c1ccc(F)cc1` [Example 210, 4-fluoro-N-[3-fluoro-2-({(2S,5S)-5-[({[(1S)-1-(4-fluorophenyl)ethyl]carbamoyl}oxy)methyl]morpholin-2-yl}methoxy)phenyl]-β-(4-fluorophenyl)-L-phenylalaninamide], the IC50 turned out to be 13 nM.

In the case of `N[C@H](C(=O)Nc1cncc(F)c1CC[C@@H]1CN[C@H](COC(=O)N[C@@H]2COC[C@@H]2F)CO1)C(c1ccc(F)cc1)c1ccc(F)cc1` [Example 211], the IC50 stood at 12 nM.

On to `CC(C)(CO)NC(=O)OC[C@@H]1CO[C@H](CCc2c(F)cncc2NC(=O)[C@@H](N)C(c2ccc(F)cc2)c2ccc(F)cc2)CN1` [Example 218, 4-fluoro-N-(5-fluoro-4-{2-[(2R,5S)-5-({[(2-hydroxy-1,1-dimethylethyl)carbamoyl]oxy}methyl)morpholin-2-yl]ethyl}pyridin-3-yl)-β-(4-fluorophenyl)-L-phenylalaninamide], for which the IC50 is 2.1 nM.

In the case of `N[C@@H](C(=O)Nc1cncc(F)c1CC[C@@H]1CN[C@H](CO)CO1)[C@@H](c1ccccc1)c1ccnc2ccccc12` [Example 225, (βS)-N-(5-fluoro-4-{2-[(2R,5R)-5-(hydroxymethyl)morpholin-2-yl]ethyl}pyridin-3-yl)-β-quinolin-4-yl-D-phenylalaninamide], the IC50 was determined as 2700 nM.

`Cc1cccc(NC(=O)[C@@H](N)C(c2ccc(F)cc2)c2ccc(F)cc2)c1CC[C@@H]1CN[C@H](COC(=O)NCC(F)(F)F)CO1` [Example 226, 4-fluoro-β-(4-fluorophenyl)-N-(3-methyl-2-{2-[(2R,5S)-5-({[(2,2,2-trifluoro-ethyl)carbamoyl]oxy}methyl)morpholin-2-yl]ethyl}phenyl)-L-phenylalaninamide]: the IC50 was found to be 360 nM.

Consider `N[C@H](C(=O)Nc1cccc(F)c1CC[C@@H]1CN[C@H](COC(=O)NCC(F)(F)F)CO1)[C@H](c1ccccc1)c1ccc(Oc2ccccc2)cc1` [Example 227, (βR)-N-(3-fluoro-2-{2-[(2R,5S)-5-( {[(2,2,2-trifluoroethyl)carbamoyl]oxy}methyl)morpholin-2-yl]ethyl}phenyl)-O,β-diphenyl-L-tyrosinamide], for which the IC50 worked out at 340 nM.
